According to the supplement of paper PMC10307832:

Key:
Experiment in all cases: relative viability (nuclei count vs DMSO), 5 days (fraction); higher = more cells survive
[1] = compound: CC[C@H](Nc1ncnc2[nH]cnc12)c1nc2cccc(F)c2c(=O)n1-c1ccccc1 [Idelalisib] + Nc1ncn([C@H]2C[C@H](O)[C@@H](CO)O2)c(=O)n1 [Decitabine] (partner 2 µM)
In short: (§1)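 Relative viability is defined as nuclei in treated wells over nuclei in vehicle wells. Duplicate plates were run and medians reported. Lung cancer cell lines in 1536-well plates were dosed by pin tool one day after seeding, with one drug or with a fixed anchor-drug dose plus five library-drug doses (not always all listed) in √10 steps, and nuclei were counted after 5 days.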

[2] = compound: Nc1nc2[nH]cc(CCc3ccc(C(=O)N[C@@H](CCC(=O)O)C(=O)O)cc3)c2c(=O)[nH]1 [Pemetrexed] + COc1cccc2cc(-c3nc([C@H]4CC[C@H](C(=O)O)CC4)n4ncnc(N)c34)[nH]c12 [OSI-027] (partner 0.5 µM)
In short: as §1

[3] = compound: Nc1nc2[nH]cc(CCc3ccc(C(=O)N[C@@H](CCC(=O)O)C(=O)O)cc3)c2c(=O)[nH]1 [Pemetrexed] + Cc1nc(NC(=O)N2CCC[C@H]2C(N)=O)sc1-c1ccnc(C(C)(C)C(F)(F)F)c1 [Alpelisib] (partner 2 µM)
In short: as §1

[4] = compound: Nc1nc2[nH]cc(CCc3ccc(C(=O)N[C@@H](CCC(=O)O)C(=O)O)cc3)c2c(=O)[nH]1 [Pemetrexed] + O=C(CCCCCCC(=O)Nc1ccccc1)NO [Vorinostat] (partner 1 µM)
In short: as §1

| Cell Line | relative viability ([1]; first compound 0.04 µM) | relative viability ([1]; first compound 0.1265 µM) | relative viability ([1]; first compound 0.4 µM) | relative viability ([1]; first compound 1.265 µM) | relative viability ([1]; first compound 4 µM) | relative viability ([2]; first compound 0.002 µM) | relative viability ([2]; first compound 0.006325 µM) | relative viability ([2]; first compound 0.02 µM) | relative viability ([2]; first compound 0.06325 µM) | relative viability ([2]; first compound 0.2 µM) | relative viability ([3]; first compound 0.002 µM) | relative viability ([3]; first compound 0.006325 µM) | relative viability ([3]; first compound 0.02 µM) | relative viability ([3]; first compound 0.06325 µM) | relative viability ([3]; first compound 0.2 µM) | relative viability ([4]; first compound 0.002 µM) | relative viability ([4]; first compound 0.006325 µM) | relative viability ([4]; first compound 0.02 µM) | relative viability ([4]; first compound 0.06325 µM) | relative viability ([4]; first compound 0.2 µM) |
| --- | --- | --- | --- | --- | --- | --- | --- | --- | --- | --- | --- | --- | --- | --- | --- | --- | --- | --- | --- | --- |
| NCI-H1755 | 0.724 | 0.637 | 0.729 | 0.7 | 0.803 | 0.685 | 0.797 | 0.782 | 0.691 | 0.667 | 0.828 | 0.935 | 0.923 | 0.926 | 0.862 | 0.716 | 0.813 | 0.776 | 0.751 | 0.624 |
| NCI-H1793 | 0.404 | 0.398 | – | 0.454 | 0.38 | 0.251 | 0.259 | 0.309 | 0.284 | 0.289 | 0.672 | 0.692 | 0.83 | 0.624 | 0.677 | 0.613 | 0.792 | 0.69 | 0.986 | 0.796 |
| NCI-H1915 | 0.256 | 0.249 | 0.269 | 0.253 | 0.256 | 0.58 | 0.631 | 0.661 | 0.609 | 0.573 | 0.995 | 1.04 | 1.03 | 1.09 | 1.1 | 0.419 | 0.484 | 0.526 | 0.463 | 0.549 |
| NCI-H1944 | 0.468 | 0.452 | 0.433 | 0.431 | 0.429 | – | 0.512 | 0.43 | 0.405 | 0.403 | 0.674 | 0.751 | 0.869 | 0.789 | 0.766 | 0.43 | 0.487 | 0.565 | 0.592 | 0.531 |
| NCI-H1975 | 0.393 | 0.374 | 0.373 | 0.383 | 0.381 | 0.528 | 0.681 | 0.873 | 0.557 | 0.394 | – | 0.63 | 0.704 | 0.535 | 0.4 | 0.666 | 0.721 | 0.699 | 0.588 | 0.308 |
| NCI-H1993 | 0.53 | 0.584 | 0.588 | 0.545 | 0.501 | 0.609 | 0.524 | 0.503 | 0.504 | 0.585 | 0.731 | 0.645 | 0.661 | 0.754 | 0.785 | 0.832 | 0.863 | 0.701 | 0.67 | 0.612 |
| NCI-H2009 | 0.4 | 0.35 | 0.322 | 0.405 | 0.381 | 0.573 | 0.607 | 0.749 | 0.66 | 0.683 | 1.15 | 1.13 | 1.22 | 1.12 | 1.08 | 0.631 | 0.7 | 0.776 | 0.681 | 0.654 |
